# Reference: PubChem BioAssay (NCI)
# “And” between values parts separate entries of the source, which are not always exact repeats. Equal values may be shown once.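 How tested: cells in 96-well plates exposed to compound for 48 hours at five concentrations. At the GI50, growth is halved. At the TGI there is no net growth.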
# Assays:
# Experiment in all cases: NCI tumour cell line growth inhibition, 48 h
# [1] = tested on: COLO 205 colon
# [2] = tested on: MALME-3M melanoma
# [3] = tested on: M14 melanoma
# [4] = tested on: SNB-75 CNS
# [5] = tested on: OVCAR-8 ovarian
# [6] = tested on: K-562 leukemia
# [7] = tested on: NCI-H23 lung
# [8] = tested on: SK-MEL-2 melanoma
# [9] = tested on: EKVX NSCLC
# [10] = tested on: CAKI-1 renal
# [11] = tested on: UACC-62 melanoma
# [12] = tested on: HT29 colon
# [13] = tested on: SW-620 colon
Compound,TGI [1] [µM],TGI [2] [µM],TGI [3] [µM],TGI [4] [µM],TGI [5] [µM],TGI [6] [µM],TGI [7] [µM],TGI [8] [µM],TGI [9] [µM],TGI [10] [µM],TGI [11] [µM],TGI [12] [µM],TGI [13] [µM],GI50 [1],GI50 [2] [µM],GI50 [5] [µM],GI50 [6],GI50 [8] [µM],GI50 [9] [µM],GI50 [11]
COC(=O)/C=C/C1(O)C=CC(=O)C=C1,23.4,8.26,3.78,24,> 100,> 100,17.5,19.1,10.4,4.46,7.43,,,,,,,,,
Cc1ccc2nc(C=Nc3ccc(Cl)cc3)cc(C)c2c1,6.08,> 64.9,21.1,57.5,23.3,> 39.5,38,> 100,> 100,> 76.7,40,37.8,27.2,,,,,,,
C=C(CN1CC2C[C@](C(=O)OC)(c3cc4ccccc4[nH]3)C1C(OC)C2OC)S(=O)(=O)c1ccccc1 (stereo partly drawn),6.14,7.38,9.36,11.6,12.6,10.6,9.31,12.3,13,11.7,14.8,9.44,22.8,,,,,,,
CCOC(=O)c1c2c(c(O)c3ccccc3c(O)n(Cc3ccccc3)c1C)C(=O)C=CC2=O,> 100,> 100,> 100,> 100,> 100,> 100,> 100,> 100,> 100,> 100,> 100,> 100,> 100,,,,,,,
COc1ccc(/C=C2\CCC/C(=C\c3ccc(O)c(CN4CCCCC4)c3)C2=O)cc1,46.9,49,35.3,> 71.8,13.6,> 100,41.3,43,51.7,> 74.6,36.1,19.9,28.8,,,,,,,
CCN(CC)CCNc1ccc2nnn3c4ccc(O)cc4c(=O)c1c23,16.9,19.4,20.1,14.1,17.5,30.6,19.7,25.2,21.5,13.4,22.1,15,15.6,,,,,,,
O=C(O)CC(Sc1ccccc1)c1ccccc1 (stereo not drawn),> 100,> 100,> 100,> 100,> 100,> 100,> 100,> 100,> 100,> 100,> 100,> 100,> 100,,,,,,,
c1ccc2c(c1)CCc1[nH]c3c(c1-2)-c1ccccc1CC3,> 100,> 100,> 100,> 100,> 100,> 100,> 100,> 100,> 100,> 100,> 100,> 100,> 100,,,,,,,
Cc1ccc(S(=O)c2sccc2C=O)cc1 (stereo not drawn),> 100,> 100,58.1,94.9,56.5,> 100,> 100,> 100,> 100,> 100,55.3,45,55.9,,,,,,,
CCOP(=O)(OCC)/C(C#N)=C/c1cnc[nH]1,> 100,> 100,> 100,> 100,> 100,> 100,> 100,> 100,> 100,> 100,> 100,> 100,> 100,,,,,,,
CCOC(=O)C(NC(=O)c1ccccc1)(Nc1ccc(Cl)cc1C(F)(F)F)C(F)(F)F (stereo not drawn),19.2,22.1,28,15.1,> 100,> 26.7,> 78,> 45.1,> 100,> 55.7,27.4,6.53,17.2,,,,,,,
CN1CCN(c2ccc3nc(-c4ccc5nc(-c6ccc(O)cc6)[nH]c5c4)[nH]c3c2)CC1,147,62.5,493,619,539,470,531,578,489,306,118,295,959,6.24 µM and 19.5 µM and 6.78 µM,3.29,173,12.7 µM and 6.04 µM,198,257,14 µM and 86.9 µM and 28 µM
COC1OC(COC(=O)c2cc(O)c(O)c(O)c2)C(OC(=O)c2cc(O)c(O)c(O)c2)C(OC(=O)c2cc(O)c(O)c(O)c2)C1OC(=O)c1cc(O)c(O)c(O)c1 (stereo not drawn),> 100,> 100,26.8,> 100,> 100,49.7,> 100,> 100,> 100,> 100,> 100,> 100,> 100,,,,,,,
COc1ccc2[nH]c3c(C)c4ccnc(NCCCN(C)CCCNc5ccc6ncn7c8ccccc8c(=O)c5c67)c4c(C)c3c2c1,4.36,5.92,2.48,7.38,7.16,4.25,1.94,8.74,2.48,0.561,9.18,1.03,25,,,,,,,
CC(C)(C)c1cc2c(O)c(c1)Cc1cc(C(C)(C)C)cc(c1O)Cc1cc(C(C)(C)C)cc(c1O)Cc1cc(C(C)(C)C)cc(c1O)Cc1cc(C(C)(C)C)cc(c1O)Cc1cc(C(C)(C)C)cc(c1O)Cc1cc(C(C)(C)C)cc(c1O)Cc1cc(C(C)(C)C)cc(c1O)C2,> 50,> 50,> 50,> 50,> 50,> 50,> 50,> 50,> 50,> 50,> 50,> 50,> 50,,,,,,,
CC1C(OC2O[C@@H]3O[C@@]4(C)CC[C@H]5[C@H](C)CC[C@@H](C2C)[C@@]35O4)O[C@@H]2O[C@@]3(C)CC[C@H]4[C@H](C)CC[C@@H]1[C@@]24O3 (stereo partly drawn),> 50,> 50,> 50,> 50,> 50,> 50,> 50,> 50,> 50,> 50,> 50,> 50,> 50,,,,,,,
